Drawing on patent US10287305B2, “Substituted piperidine compound and use thereof” (Takeda Pharmaceutical Company Limited, priority 2016, dated 2019), this text covers EC50 and Emax for 26 compounds.

For the assay, the target named is human orexin type 2 receptor (hOX2R) (Homo sapiens (Human), UniProt O43614). As to the kind of experiment: Measurement of orexin type 2 receptor agonist activity (Experimental Example 2-1, FLIPR TETRA, intracellular Ca2+). The assay is classed as cell-based. The conditions noted are these: CHO dhfr- cells expressing hOX2R; for Emax at 30 µM: value at 30 uM concentration, orexin B as full agonist = 100%; for Emax: read-out: Emax (%).

Where [1] appears, read: agonist activity, 10 nM human orexin B = 100%.

Sequence of human orexin type 2 receptor (hOX2R) (O43614 whole entry): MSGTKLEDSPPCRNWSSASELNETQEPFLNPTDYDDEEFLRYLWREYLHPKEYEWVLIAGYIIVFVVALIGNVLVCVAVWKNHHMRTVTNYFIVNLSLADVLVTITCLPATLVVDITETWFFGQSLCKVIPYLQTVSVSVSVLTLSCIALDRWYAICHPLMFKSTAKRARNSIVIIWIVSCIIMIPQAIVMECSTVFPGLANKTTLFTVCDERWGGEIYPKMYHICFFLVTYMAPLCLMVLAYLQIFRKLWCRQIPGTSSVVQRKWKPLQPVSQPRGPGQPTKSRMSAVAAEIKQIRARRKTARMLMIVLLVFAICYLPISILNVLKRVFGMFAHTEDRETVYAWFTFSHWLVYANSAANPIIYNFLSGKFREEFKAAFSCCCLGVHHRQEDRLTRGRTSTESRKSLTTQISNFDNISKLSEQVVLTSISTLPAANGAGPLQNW

The EC50 is the concentration needed to bring the measured effect to its halfway point. Low readings indicate a more potent agent, high ones a less potent agent. One may read the Emax as the size of the effect at its maximum, as opposed to the concentration needed. For the compound `CS(=O)(=O)N[C@H]1CCCN(C(=O)CO)[C@H]1CO[C@H]1CC[C@@H](c2cccc(F)c2F)CC1` [Example 25, N-((2R,3S)-2-(((cis-4-(2,3-difluorophenyl)cyclohexyl)oxy)methyl)-1-glycoloylpiperidin-3-yl)methanesulfonamide], the maximal effect (Emax) at 30 µM turned out to be 94%. Besides, under setting [1], the EC50 was found to be 7.9 nM. For `COc1ccccc1[C@H]1CC[C@@H](OC[C@@H]2NCCC[C@@H]2NS(C)(=O)=O)CC1` [Example 27, N-((2R,3S)-2-(((cis-4-(2-methoxyphenyl)cyclohexyl)oxy)methyl)piperidin-3-yl)methanesulfonamide] the same measures were 108% and 310 nM. For `COc1ccccc1[C@H]1CC[C@@H](OC[C@H]2[C@@H](NS(C)(=O)=O)CCCN2C(=O)C2CC2)CC1` [Example 28, N-((2R,3S)-1-(cyclopropylcarbonyl)-2-(((cis-4-(2-methoxyphenyl)cyclohexyl)oxy)methyl)piperidin-3-yl)methanesulfonamide] the same measures were 96% and 2.7 nM. Taken in the same sequence, the figures for `CC(C)OC(=O)N1CCC[C@H](NS(=O)(=O)N(C)C)[C@@H]1COC1CCN(c2ncccn2)CC1` [Example 29, isopropyl (2R,3S)-3-((dimethylsulfamoyl)amino)-2-(((1-(pyrimidin-2-yl)piperidin-4-yl)oxy)methyl)piperidine-1-carboxylate] were 104% and 17 nM.

Compound `CS(=O)(=O)N[C@H]1CCCN(C(=O)C2CC2)[C@H]1CO[C@H]1CC[C@@H](c2ccccc2)CC1` [Example 31, N-((2R,3S)-1-(cyclopropylcarbonyl)-2-(((cis-4-phenylcyclohexyl)oxy)methyl)piperidin-3-yl)methanesulfonamide] gave an Emax at 30 µM of 95%. Moreover, a half-maximal effect under setting [1] (EC50) was put at 0.66 nM.

With `COC(=O)N1CCC[C@H](NS(C)(=O)=O)[C@@H]1CO[C@H]1CC[C@@H](c2ccccc2C(F)(F)F)CC1` [Example 32, methyl (2R,3S)-3-((methylsulfonyl)amino)-2-(((cis-4-(2-(trifluoromethyl)phenyl)cyclohexyl)oxy)methyl)piperidine-1-carboxylate], the maximal effect (Emax) at 30 µM came to 102%. Moreover, under setting [1], the EC50 stood at 15 nM. `CCS(=O)(=O)N[C@H]1CCCN(C(C)=O)[C@H]1CO[C@H]1CC[C@@H](C(C)C)CC1` [Example 33, N-((2R,3S)-1-acetyl-2-(((cis-4-isopropylcyclohexyl)oxy)methyl)piperidin-3-yl)ethanesulfonamide]: the maximum response (Emax) at 30 µM was found to be 98%. The EC50 under setting [1] was 68 nM. Consider `CC(=O)N1CCC[C@H](NS(C)(=O)=O)[C@@H]1CO[C@H]1CC[C@@H](C(C)C)CC1` [Example 70, N-((2R,3S)-1-acetyl-2-(((cis-4-isopropylcyclohexyl)oxy)methyl)piperidin-3-yl)methanesulfonamide], for which the maximal response (Emax) at 30 µM came out at 98%. Further, it took 97 nM to reach a half-maximal effect under setting [1] (EC50).

Compound `CC(=O)N1CCC[C@H](NS(C)(=O)=O)[C@@H]1CO[C@H]1CC[C@@H](C2CCCCC2)CC1` [Example 71, N-(cis-1-acetyl-2-(((1s,4s)-1,1′-bi(cyclohexyl)-4-yloxy)methyl)piperidin-3-yl)methanesulfonamide] showed an Emax at 30 µM of 83%. Also, under setting [1], the EC50 stood at 4300 nM. Taken in the same sequence, the figures for `CC(C)[C@H]1CC[C@@H](OC[C@H]2[C@@H](NS(C)(=O)=O)CCCN2C(=O)COc2ccn(C)n2)CC1` [Example 84, N-((2R,3S)-2-(((cis-4-isopropylcyclohexyl)oxy)methyl)-1-(((1-methyl-1H-pyrazol-3-yl)oxy)acetyl)piperidin-3-yl)methanesulfonamide] were 98% and 840 nM. Taken in the same sequence, the figures for `CC(C)[C@H]1CC[C@@H](OC[C@H]2[C@@H](NS(C)(=O)=O)CCCN2C(=O)C2CCC(=O)N2)CC1` (stereo partly drawn) [Example 87, N-(cis-2-(((cis-4-isopropylcyclohexyl)oxy)methyl)-1-(5-oxoprolyl)piperidin-3-yl)methanesulfonamide] were 82% and 4900 nM. Taken in the same sequence, the figures for `CC(C)[C@H]1CC[C@@H](OC[C@H]2[C@@H](NS(C)(=O)=O)CCCN2C(=O)C2CC(=O)C2)CC1` [Example 91, N-((2R,3S)-2-(((cis-4-isopropylcyclohexyl)oxy)methyl)-1-((3-oxocyclobutyl)carbonyl)piperidin-3-yl)methanesulfonamide] were 89% and 39 nM. The compound `CC(C)[C@H]1CC[C@@H](OC[C@H]2[C@@H](NS(C)(=O)=O)CCCN2C(=O)C2CC(O)C2)CC1` (stereo partly drawn) [Example 92, N-((2R,3S)-1-((3-hydroxycyclobutyl)carbonyl)-2-(((cis-4-isopropylcyclohexyl)oxy)methyl)piperidin-3-yl)methanesulfona] had a maximal response (Emax) at 30 µM of 92%. In addition, under setting [1], the concentration giving a half-maximal response (EC50) was found to be 370 nM. Regarding `CNC(=O)N1CCC[C@H](NS(C)(=O)=O)[C@@H]1CO[C@H]1CC[C@@H](C(C)C)CC1` [Example 102, (2R,3S)-2-(((cis-4-isopropylcyclohexyl)oxy)methyl)-N-methyl-3-((methylsulfonyl)amino)piperidine-1-carboxamide], the Emax at 30 µM amounted to 101%. Besides, under setting [1], the EC50 came out at 1.2 nM. Taken in the same sequence, the figures for `[2H]C1C([2H])[C@]([2H])(C(C)C)C([2H])C([2H])[C@]1([2H])OC[C@H]1[C@@H](NS(C)(=O)=O)CCCN1C(C)=O` (stereo partly drawn) [Example 103, N-(cis-1-acetyl-2-(((cis-4-isopropyl(1,2,3,4,5,6-d6)cyclohexyl)oxy)methyl)piperidin-3-yl)methanesulfonamide] were 98% and 170 nM. For `[2H]C1C([2H])[C@]([2H])(C(C)C)C([2H])C([2H])[C@]1([2H])OC[C@H]1[C@@H](NS(C)(=O)=O)CCCN1C(=O)NCC` (stereo partly drawn) [Example 104, cis-N-ethyl-2-(((cis-4-isopropyl(1,2,3,4,5,6-d6)cyclohexyl)oxy)methyl)-3-((methylsulfonyl)amino)piperidine-1-carboxamide] the same measures were 100% and 2.2 nM.

With `CC(=O)N1CCC[C@H](NS(C)(=O)=O)[C@@H]1CO[C@H]1CC[C@@H](c2cccc(F)c2)CC1` [Example 147, N-((2R,3S)-1-acetyl-2-(((cis-4-(3-fluorophenyl)cyclohexyl)oxy)methyl)piperidin-3-yl)methanesulfonamide], where the note is “FLIPR TETRA, Fluo-4AM”, the 50% effective concentration (EC50) was found to be 10 nM and the maximal response (Emax) came to 100%. Taken in the same sequence, the figures for `CCNC(=O)N1CCC[C@H](NS(C)(=O)=O)[C@@H]1CO[C@H]1CC[C@@H](c2cccc(F)c2)CC1` [Example 148, (2R,3S)-N-ethyl-2-(((cis-4-(3-fluorophenyl)cyclohexyl)oxy)methyl)-3-((methylsulfonyl)amino)piperidine-1-carboxamide] were 0.053 nM and 103%. For `CS(=O)(=O)N[C@H]1CCCN(C(=O)[C@H]2CCOC2)[C@H]1CO[C@H]1CC[C@@H](c2ccccc2)CC1` [Example 149, N-(cis-2-(((cis-4-phenylcyclohexyl)oxy)methyl)-1-((3S)-tetrahydrofuran-3-ylcarbonyl)piperidin-3-yl)methanesulfonamide] the same measures were 25 nM and 100%. With `CS(=O)(=O)N[C@H]1CCCN(C(=O)[C@@H]2CCOC2)[C@H]1CO[C@H]1CC[C@@H](c2ccccc2)CC1` [Example 150, N-(cis-2-(((cis-4-phenylcyclohexyl)oxy)methyl)-1-((3R)-tetrahydrofuran-3-ylcarbonyl)piperidin-3-yl)methanesulfonamide], under “FLIPR TETRA, Fluo-4AM”, the EC50 turned out to be 30 nM and the Emax stood at 99%. On to `CS(=O)(=O)N[C@H]1CCCN(C(=O)CC#N)[C@H]1CO[C@H]1CC[C@@H](c2ccccc2)CC1` [Example 180, N-((2R,3S)-1-(cyanoacetyl)-2-(((cis-4-phenylcyclohexyl)oxy)methyl)piperidin-3-yl)methanesulfonamide], for which, for the setting “FLIPR TETRA, Fluo-4AM”, the EC50 was 17 nM and the Emax turned out to be 106%. `CS(=O)(=O)CC(=O)N1CCC[C@H](NS(C)(=O)=O)[C@@H]1CO[C@H]1CC[C@@H](c2ccccc2)CC1` [Example 181, N-((2R,3S)-1-((methylsulfonyl)acetyl)-2-(((cis-4-phenylcyclohexyl)oxy)methyl)piperidin-3-yl)methanesulfonamide]: where the note is “FLIPR TETRA, Fluo-4AM”, the Emax worked out at 89%. For the compound `CCC(=O)N1CCC[C@H](NS(C)(=O)=O)[C@@H]1CO[C@H]1CC[C@@H](c2ccccc2)CC1` [Example 182, N-((2R,3S)-2-(((cis-4-phenylcyclohexyl)oxy)methyl)-1-propionylpiperidin-3-yl)methanesulfonamide], where the note is “FLIPR TETRA, Fluo-4AM”, the midpoint of the response, the EC50, lay at 2.3 nM and the maximal response (Emax) was 92%.

Consider `CS(=O)(=O)N[C@H]1CCCN(C(=O)[C@H]2CCC(=O)O2)[C@H]1CO[C@H]1CC[C@@H](c2ccccc2)CC1` [Example 183, N-((2R,3S)-1-(((2R)-5-oxotetrahydrofuran-2-yl)carbonyl)-2-(((cis-4-phenylcyclohexyl)oxy)methyl)piperidin-3-yl)methanesulfonamide], for which, for the setting “FLIPR TETRA, Fluo-4AM”, a half-maximal effect (EC50) was put at 40 nM and the Emax is 94%. For `CS(=O)(=O)N[C@H]1CCCN(C(=O)[C@@H]2CCC(=O)O2)[C@H]1CO[C@H]1CC[C@@H](c2ccccc2)CC1` [Example 184, N-((2R,3S)-1-(((2S)-5-oxotetrahydrofuran-2-yl)carbonyl)-2-(((cis-4-phenylcyclohexyl)oxy)methyl)piperidin-3-yl)methanesulfonamide], where the note is “FLIPR TETRA, Fluo-4AM”, a half-maximal response (EC50) required 9.3 nM and the maximal response (Emax) turned out to be 93%.

With `CS(=O)(=O)N[C@H]1CCCN(C(=O)CO)[C@H]1CO[C@H]1CC[C@@H](c2ccccc2)CC1` [Example 185, N-((2R,3S)-1-glycoloyl-2-(((cis-4-phenylcyclohexyl)oxy)methyl)piperidin-3-yl)methanesulfonamide], for the setting “FLIPR TETRA, Fluo-4AM”, the response was half-maximal at 21 nM (EC50) and the Emax was 98%.
